Data set [1] in a line: NaCl concentration required to stabilize silver-chloro complex salts. Type of data set: physicochemical. To be noted: for NaCl CONCENTRATION REQUIRED TO STABILIZE SILVER-CHLORO COMPLEX SALTS IN AQUEOUS SOLUTION OF 70% (w/v) ETHANOL (b) / NaCl CONCENTRATION REQUIRED TO STABILIZE SILVER-CHLORO COMPLEX SALTS IN WATER (AQUEOUS SOLUTION) (a): 25° C. As to the method: The concentration of the chloride in the second antimicrobial agent in accordance with the present invention is not particularly limited, but it is preferable that the chloride be added in a predetermined concentration in accordance with the concentration of the silver-chloro complex salts contained in the antimicrobial agent. […] Specifically, the required concentration of the chloride to stabilize the silver-chloro complex salts (at 25° C.) has the following correlation in water or in a 70%(w/v) ethanol aqueous solution.

Data set [2] can be described thus: upper limit value of the silver-chloro complex salts in sodium chloride-water-ethanol. Type of data set: physicochemical. The settings on record: water and ethanol mixed in the volume ratio of 32:68, 3%(w/v) of sodium chloride. An excerpt:
For example, in the system of silver-chloro complex salts (sodium tetrachloroargentate (I))-sodium chloride-water-ethanol, the upper limit value of the silver-chloro complex salts is 46 ppm when water and ethanol was mixed in the volume ratio of 32:68 and 3%(w/v) of sodium chloride was contained therein.

[3] abbreviates: silver ion concentration 0.183 ppm.
The mark [4] stands for this setting: silver ion concentration 0.410 ppm.
[5] abbreviates: silver ion concentration 2.600 ppm.
Setting [6] is: silver ion concentration 8.697 ppm.
The mark [7] stands for this setting: silver ion concentration 42.189 ppm.

As for `[Cl][Ag-3]([Cl])([Cl])[Cl].[Na+].[Na+].[Na+]` [SILVER-CHLORO COMPLEX SALTS, sodium tetrachloroargentate (I)], the “ratio of NaCl concentration required in 70% ethanol to that required in water” value in data set [1] (setting [3]) worked out at 0.044; in data set [1] (setting [4]) it was 0.049; in data set [1] (setting [5]) it was 0.062; in data set [1] (setting [6]) it was 0.107; in data set [1] (setting [7]), 0.262. Also, the “NaCl CONCENTRATION REQUIRED TO STABILIZE SILVER-CHLORO COMPLEX SALTS IN AQUEOUS SOLUTION OF 70% (w/v) ETHANOL (b)” value was determined as 0.128 g/L in data set [1] (setting [3]); 0.287 g/L in data set [1] (setting [4]); 1.820 g/L in data set [1] (setting [5]); 6.088 g/L in data set [1] (setting [6]); 29.532 g/L in data set [1] (setting [7]). Further, the “NaCl CONCENTRATION REQUIRED TO STABILIZE SILVER-CHLORO COMPLEX SALTS IN WATER (AQUEOUS SOLUTION) (a)” value in data set [1] (setting [3]) is 2.925 g/L; in data set [1] (setting [4]), 5.850 g/L; in data set [1] (setting [5]), 29.250 g/L; in data set [1] (setting [6]), 57.038 g/L; in data set [1] (setting [7]), 112.905 g/L. Also, the “upper limit value of the silver-chloro complex salts” value in data set [2] is listed as 46 ppm.

These data come from patent US6726936B1, “Antimicrobial agents” (Sumitomo Metal Mining Co., Ltd., priority 1998, dated 2004).
